# Laboratory results: patent US11312692B1, “Polymorphic compounds and uses thereof” (Aldeyra Therapeutics, Inc., priority 2018, dated 2022)
# Tests used:
# Assay type in all cases: physicochemical
# [1] = Aqueous solubility at pH 1, 4.5 and 6.8 (HPLC concentration, XRPD of solids); conditions: for solubility: thermodynamic from solid, shaken at ambient temperature
# Protocol: Approximately 20 mg of each of Compounds 1 and 5-8 was weighed into three 2 mL vials. The appropriate pH buffer was added to achieve pH values of pH 1, 4.5 and 6.8. The pH was measured after buffer addition and the pH adjusted if required back to the appropriate pH. […]
# [2] = Dynamic Vapour Sorption (DVS) with post-DVS XRPD; conditions: for solid form post-DVS by XRPD: after DVS cycles
# Protocol: Dynamic Vapour Sorption (DVS): approximately, 10 mg of sample was placed into a mesh vapour sorption balance pan and loaded into a DVS-1 dynamic vapour sorption balance, a DVS Intrinsic dynamic vapour sorption balance or a DVS Advantage dynamic vapour sorption balance by Surface Measurement Systems. The sample was subjected to a ramping profile from 40-90% relative humidity (RH) at 10% increments, maintaining the sample at each step until a stable weight had been achieved (dm/dt 0.004%, minimum step length 30 minutes, maximum step length 500 minutes) at 25° C. After completion of the sorption cycle, the sample was dried using the same procedure to 0% RH and then a second sorption cycle back to 40% RH. Two cycles were performed. The weight change during the sorption/desorption cycles were plotted, allowing for the hygroscopic nature of the sample to be determined. XRPD analysis was then carried out on any solid retained.
# [3] = Conversion of solid form on grinding (XRPD)
# Protocol: (§1) Form C material was produced through crash cooling to −18° C. in acetonitrile, the material produced through this scale-up was identified as being similar to the previous Form C material.
# [4] = 1 week stability (40° C./75% RH, 80° C., ambient), XRPD and HPLC purity
# Protocol: Scale up of both Forms B and C was carried out on the 200 mg scale. Form B was produced from acetone through evaporation. Characterisation of the solid, indicated the material had long lath-like crystals, with the remaining parameters consistent with the previously produced Form B material. Further analysis of the solid by NMR and mass spectrometry identified the material as an imine.
# as §1
smiles,measurement,setting,value
CC(C)(O)c1cc2oc(-c3ccccc3)nc2cc1N [Compound 1 Form A],solubility,"[1]; aqueous buffer, pH 4.5 buffer",≥ 500 mg/mL
same,solubility,"[1]; aqueous buffer, pH 6.8 buffer",≥ 500 mg/mL
same,solubility,"[1]; simulated gastric fluid, pH 1 buffer",≥ 500 mg/mL
"CC(C)(O)c1cc2oc(-c3ccccc3)nc2cc1N [Compound A, Form A]",hygroscopic nature (DVS),"[2]; DVS, 25° C.",slightly hygroscopic
same,uptake at 90% RH (DVS),"[2]; DVS, 25° C., 90% RH",0.6%
same,solid form post-DVS by XRPD,[2],consistent with the input material
"CC(C)(O)c1cc2oc(-c3ccccc3)nc2cc1N [Compound A, Form C]",solid form when ground,[3],mixture of Forms A and C
same,hygroscopic nature (DVS),"[2]; DVS, 25° C.",slightly hygroscopic
same,solid form post-DVS by XRPD,[2],Form A
same,drop in purity over the stability period,"[4]; 1 week, 40° C./75% RH, versus input Form C purity",0.1%
same,change in purity over the stability period,"[4]; 1 week, 80° C.",no change
same,change in purity over the stability period,"[4]; 1 week, ambient conditions",no change
same,solid form after 1 week stability by XRPD,"[4]; all three conditions (40° C./75% RH, 80° C., ambient)",converted to Form A
CC(C)(O)c1cc2oc(-c3ccccc3)nc2cc1N.CS(=O)(=O)O [Form A of Compound 1],aqueous solubility compared with other salt forms,"[1]; versus Form C of Compound 5, Form A of Compound 6, Form B of Compound 7, Form B of Compound 8, pH 1, 4.5, 6.8 buffers, ca. 20 hours, ambient",far more soluble
